Experimental data reported in patent US9487479B2, “Small molecule inhibitors of N-terminus activation of the androgen receptor” (The University of British Columbia, priority 2008, dated 2016).

Key:
[1] = test system: LNCaP cells; experiment: Cytotoxicity: cell morphology of treated LNCaP cells; assay type: cell-based, human; conditions: LNCaP cells treated for 48 h, 10 μM
Excerpt: From this extract, the pure active compound, Sintokamide A (CB3.1) was isolated and to ensure that the inhibitory effect of CB3.1 was not due to generally cytotoxicity, cell morphology of LNCaP cells was examined. […] Cells treated with R1881 are also shown to provide an indication of cell number and for comparison.

[2] = target: T1, androgen receptor (AR) (Homo sapiens, UniProt P10275, T878A); experiment: PSA (6.1 kb)-luciferase reporter assay in LNCaP cells; assay type: cell-based; conditions: 5 μg/ml
T1 construct: endogenous in cells; host or cells: LNCaP human prostate cancer cells
T1 sequence (P10275 1-920 T878A): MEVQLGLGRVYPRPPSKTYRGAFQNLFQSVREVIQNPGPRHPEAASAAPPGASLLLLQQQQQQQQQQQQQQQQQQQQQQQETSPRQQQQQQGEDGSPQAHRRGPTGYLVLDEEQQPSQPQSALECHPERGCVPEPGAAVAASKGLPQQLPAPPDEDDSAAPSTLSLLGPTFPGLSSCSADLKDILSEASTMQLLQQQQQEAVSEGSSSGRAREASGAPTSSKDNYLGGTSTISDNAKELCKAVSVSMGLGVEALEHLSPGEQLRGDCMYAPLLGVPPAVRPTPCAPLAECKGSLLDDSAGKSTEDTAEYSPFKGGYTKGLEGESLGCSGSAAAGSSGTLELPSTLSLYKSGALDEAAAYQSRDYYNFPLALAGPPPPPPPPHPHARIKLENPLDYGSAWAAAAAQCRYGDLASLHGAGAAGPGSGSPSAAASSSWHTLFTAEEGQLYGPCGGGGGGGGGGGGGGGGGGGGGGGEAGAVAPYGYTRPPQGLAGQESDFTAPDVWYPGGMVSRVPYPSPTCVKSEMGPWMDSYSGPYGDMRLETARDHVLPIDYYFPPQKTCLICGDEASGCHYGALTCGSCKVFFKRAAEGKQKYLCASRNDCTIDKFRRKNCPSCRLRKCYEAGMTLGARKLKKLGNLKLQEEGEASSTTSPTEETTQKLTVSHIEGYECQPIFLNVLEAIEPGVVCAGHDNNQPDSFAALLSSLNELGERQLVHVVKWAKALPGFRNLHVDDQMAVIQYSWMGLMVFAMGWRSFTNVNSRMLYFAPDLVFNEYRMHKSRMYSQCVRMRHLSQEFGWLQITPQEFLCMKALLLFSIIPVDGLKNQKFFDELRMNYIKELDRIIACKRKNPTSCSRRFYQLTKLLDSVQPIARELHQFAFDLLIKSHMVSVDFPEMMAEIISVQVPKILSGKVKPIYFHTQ
Protocol: White bars represent no steroid (ethanol control). Wherein glucocorticoid receptor (GR) and progesterone receptor (PR).
The cells were harvested 24 hours later and analyzed for luciferase activity. The data is normalized to protein that was measured using Bradford assay.
Sequence similarities of amino acids in the AR with related human steroid receptors (glucocorticoid receptor (GR) and progesterone receptor (PR)) are significant in some domains such as the DNA-binding-domain (DBD). Although the AR-NTD shares less than 15% homology with the PR and GR, these receptors do interact with some of the same proteins such as SRC-1 (steroid receptor coactivator-1). […] Cells were co-transfected with expression plasmids for full-length hGR and PRβ and the relative reporter (i.e., pGR-Luc or PRE-E1b-Luc reporters). Cells were then treated with ethanol vehicle, dexamethasone (GR), 4-pregnene-3,20 dione (progesterone) (PR) followed by measurement of luciferase activity.
Activation of the endogenous AR was measured in LNCaP human prostate cancer cells by measuring an androgen-responsive reporter containing androgen response elements (AREs). The PSA (6.1 kb)-luciferase reporter gene construct contains several well-characterized AREs and is induced by androgen.

[3] = test system: PC3 cells; experiment: Proliferation of PC3 cells (BrdU incorporation); assay type: cell-based, human; conditions: 5 μg/mL
Excerpt: LNCaP cells were employed initially for all experiments because they are well-differentiated human prostate cancer cells in which ligand-independent activation of the AR by FSK has been characterized (Nazareth et al 1996 J. Biol. Chem. 271, 19900-19907; and Sadar 1999 J. Biol. Chem. 274, 7777-7783). LNCaP cells express endogenous AR and secrete prostate-specific antigen (PSA) (Horoszewicz et al 1983 Cancer Res. 43, 1809-1818). LNCaP cells can be grown either as monolayers in cell culture or as tumors in the well-characterized xenograft model that progresses to androgen independence in castrated hosts (Sato et al 1996 J. Steroid Biochem. Mol. Biol. 58, 139-146; Gleave et al 1991 Cancer Res. 51, 3753-3761; Sato et al 1997 Cancer Res. 57, 1584-1589; and Sadar et al 2002 Mol. Cancer Ther. 1(8), 629-637). […] Small molecules that specifically target the AR-NTD should have no effect on PC3 cells. This means that they should not alter the proliferation of PC3 cells if they specifically block the AR to mediate their inhibitory effects. R1881 was employed since it is stable and avoids problems associated with the labile physiological ligand dihydrotestosterone (DHT). Reporter specificity may be determined using several alternative reporter gene constructs. […]
(§1) BrdU incorporation was measured 3 days later to indicate changes in proliferation in response to androgen (see FIG. 3B).

[4] = test system: LNCaP cells; experiment: Androgen-dependent proliferation of LNCaP cells (BrdU incorporation); assay type: cell-based, human; conditions: 5 μg/ml, 1 hr before R1881 0.1 nM, 3 days
Protocol: as §1

Structure (SMILES): CCC(=O)N[C@H](C[C@H](C)C(Cl)(Cl)Cl)C(=O)N1C(=O)C=C(OC)[C@@H]1C[C@H](C)C(Cl)Cl [CB3.1, Sintokamide A]
- signs of toxicity (cell morphology) [1]: no obvious signs of toxicity
- inhibition of R1881 induction of PSA (6.1)-luciferase ([2]; 1 hour pretreatment, R1881 1 nM, 24 hours): inhibition
- AR activity measured with the PSA (6.1) luciferase reporter ([2]; steroid 10 nM, 24 h): strongly inhibited
- proliferation of PC3 cells (BrdU incorporation) [3]: did not block proliferation
- androgen-induced proliferation (BrdU incorporation) [4]: reduced proliferation
